Results as given in the supplement of paper PMC10307832.

Columns and labels:
Experiment in all cases: relative viability (nuclei count vs DMSO), 5 days (fraction); higher = more cells survive
[1] = compound: COc1cc(Nc2c(C#N)cnc3cc(OCCCN4CCN(C)CC4)c(OC)cc23)c(Cl)cc1Cl [Bosutinib] + CS(=O)(=O)CCNCc1ccc(-c2ccc3ncnc(Nc4ccc(OCc5cccc(F)c5)c(Cl)c4)c3c2)o1 [Lapatinib] (partner 2 µM)
How it was run: (§1)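 Relative viability was taken as the ratio of nuclei in treated wells to nuclei in vehicle wells. Lung cancer cell lines in 1536-well plates received compounds by pin tool one day after seeding, either one drug alone or a fixed anchor-drug dose plus five library-drug doses (not always all listed) in √10 steps. Nuclei were counted on 4× images after 5 days of treatment, and values are medians of duplicate plates.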

[2] = compound: COc1cc(Nc2c(C#N)cnc3cc(OCCCN4CCN(C)CC4)c(OC)cc23)c(Cl)cc1Cl [Bosutinib] + Nc1nc2[nH]cc(CCc3ccc(C(=O)N[C@@H](CCC(=O)O)C(=O)O)cc3)c2c(=O)[nH]1 [Pemetrexed] (partner 0.2 µM)
How it was run: as §1

[3] = compound: COc1cc(Nc2c(C#N)cnc3cc(OCCCN4CCN(C)CC4)c(OC)cc23)c(Cl)cc1Cl [Bosutinib] + CC(C)C[C@H](NC(=O)[C@H](Cc1ccccc1)NC(=O)c1cnccn1)B(O)O [Bortezomib] (partner 0.002 µM)
How it was run: as §1

[4] = compound: COc1cc(Nc2c(C#N)cnc3cc(OCCCN4CCN(C)CC4)c(OC)cc23)c(Cl)cc1Cl [Bosutinib] + CC(=O)c1c(C)c2cnc(Nc3ccc(N4CCNCC4)cn3)nc2n(C2CCCC2)c1=O [Palbociclib] (partner 0.5 µM)
How it was run: as §1

[5] = compound: COc1cc(Nc2c(C#N)cnc3cc(OCCCN4CCN(C)CC4)c(OC)cc23)c(Cl)cc1Cl [Bosutinib] + CS(=O)(=O)N1CCN(Cc2cc3nc(-c4cccc5[nH]ncc45)nc(N4CCOCC4)c3s2)CC1 [Pictilisib] (partner 1 µM)
How it was run: as §1

Row | Cell Line | relative viability ([1]; first compound 0.01 µM) | relative viability ([1]; first compound 0.03162 µM) | relative viability ([1]; first compound 0.1 µM) | relative viability ([1]; first compound 1 µM) | relative viability ([2]; first compound 0.01 µM) | relative viability ([2]; first compound 0.03162 µM) | relative viability ([2]; first compound 0.1 µM) | relative viability ([2]; first compound 1 µM) | relative viability ([3]; first compound 0.01 µM) | relative viability ([3]; first compound 0.03162 µM) | relative viability ([3]; first compound 0.1 µM) | relative viability ([3]; first compound 1 µM) | relative viability ([4]; first compound 0.01 µM) | relative viability ([4]; first compound 0.03162 µM) | relative viability ([4]; first compound 0.1 µM) | relative viability ([4]; first compound 1 µM) | relative viability ([5]; first compound 0.01 µM) | relative viability ([5]; first compound 0.03162 µM) | relative viability ([5]; first compound 0.1 µM) | relative viability ([5]; first compound 1 µM)
1 | NCI-H2087 | 0.956 | 1.07 | 1.1 | 1.09 | 0.705 | 0.626 | 0.741 | 0.631 | 0.809 | 1.02 | 0.876 | 1.03 | 0.247 | 0.263 | 0.218 | 0.276 | 0.753 | 0.865 | 0.972 | 0.798
2 | NCI-H2126 | 0.742 | 0.718 | 0.724 | 0.701 | 0.659 | 0.645 | 0.694 | 0.658 | 1.06 | 1.1 | 1.07 | 1.11 | 0.324 | 0.322 | 0.351 | 0.359 | 0.496 | 0.517 | 0.522 | 0.506
3 | NCI-H2228 | 1.19 | – | 1.18 | 1.04 | 0.354 | 0.308 | 0.361 | 0.319 | 1.03 | – | 1.16 | 1.12 | 0.955 | 0.943 | 0.955 | 0.859 | 0.451 | – | 0.229 | 0.297
4 | NCI-H2347 | 0.923 | 1.05 | 0.911 | 0.989 | 0.434 | 0.469 | 0.462 | 0.421 | 1.12 | 1.3 | 1.09 | 0.923 | 0.499 | 0.425 | 0.432 | 0.453 | 0.648 | 0.575 | 0.697 | 0.383
5 | NCI-H2405 | 1.23 | 1.2 | 0.983 | 0.895 | 1.14 | 1.08 | 1.06 | 0.824 | 0.764 | 1.04 | 1.01 | 0.941 | 0.518 | 0.514 | 0.561 | 0.383 | 0.481 | 0.449 | 0.435 | 0.311
6 | NCI-H3122 | 0.99 | 1.05 | 1.02 | 0.933 | 0.201 | 0.199 | 0.207 | 0.202 | 1 | 1.1 | 1.04 | 1.06 | 0.214 | 0.18 | 0.201 | 0.218 | 0.623 | 0.609 | 0.624 | 0.761
7 | PC-3 [JPC-3] | 0.432 | 0.428 | 0.431 | 0.505 | 1.1 | 1.08 | 1.11 | 0.688 | 0.8 | 0.773 | 0.765 | 0.77 | 0.506 | 0.543 | 0.542 | 0.516 | 0.756 | 0.726 | 0.73 | 0.59
8 | PC-14 | 0.35 | 0.309 | 0.298 | 0.227 | 0.134 | 0.135 | 0.13 | 0.145 | 0.871 | 0.922 | 0.808 | 0.276 | 0.566 | 0.482 | 0.32 | 0.0932 | 0.61 | 0.588 | 0.449 | 0.125
9 | RERF-LC-KJ | 0.836 | 0.832 | 0.878 | 0.905 | 0.504 | 0.495 | 0.492 | 0.478 | 1.08 | 1.08 | 1.07 | 1.05 | 0.956 | 1.06 | 1.06 | 1.08 | 0.544 | 0.581 | 0.576 | 0.459
10 | SK-LU-1 | 0.808 | 0.919 | 1 | 0.586 | 1.02 | 0.899 | 0.982 | 0.693 | 1.15 | 1.21 | 1.04 | 0.922 | 0.399 | 0.436 | 0.397 | 0.294 | 0.574 | 0.685 | 0.517 | 0.545
11 | SW 1573 | 1.32 | 1.08 | 1.14 | 0.935 | 0.796 | 0.791 | 0.911 | 0.838 | 1.05 | 1.06 | 0.917 | 1.02 | 0.418 | 0.419 | 0.365 | 0.4 | 0.508 | 0.516 | 0.492 | 0.432
12 | UMC-11 | 1.1 | 1.03 | 1.03 | 0.821 | 0.795 | 0.755 | 0.807 | 0.707 | 0.683 | 0.778 | 0.718 | 0.666 | 0.366 | 0.344 | 0.33 | 0.279 | 0.889 | 0.81 | 0.875 | 0.764
